Measurements reported in the supplement of paper PMC10307832.

What follows are cell lines tested with Cn1cnc2c(F)c(Nc3ccc(Br)cc3Cl)c(C(=O)NOCCO)cc21 [Selumetinib] (assay: relative viability (nuclei count vs DMSO), 5 days (fraction); higher = more cells survive). Conditions: 0.02 µM.
Method in brief: (§1)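 Cells of lung cancer lines were placed in 1536-well plates and kept overnight at 37 °C. Pinning then delivered five library-drug doses (not always all listed), spaced by √10, onto plates anchored with vehicle, and the cells were left 5 days without changing medium. One step fixed, permeabilised and stained them with Hoechst, and MetaXpress counted nuclei in 4× images. Viability, as a median over plates, is treated-well nuclei divided by vehicle-well nuclei, with acceptance only at control CV below 25% and at least one doubling.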

Point of comparison: NCI-H1563, relative viability 0.957. Against it:
- HOP-62 — higher, 1.02
- NCI-H1355 — lower, 0.949
- NCI-H2405 — higher, 1.02
- NCI-H1437 — lower, 0.911
- NCI-H661 — higher, 1.01
- CAL-12T — lower, 0.88
- NCI-H1703 — higher, 0.974
- H3255 — higher, 0.983
- NCI-H2347 — lower, 0.917
- NCI-H1975 — lower, 0.952
- NCI-H1650 — lower, 0.857
- NCI-H1915 — higher, 1.07
- NCI-H2087 — lower, 0.849
- HCC-366 — higher, 0.967
- NCI-H1793 — lower, 0.709
- RERF-LC-KJ — higher, 1
- EKVX — lower, 0.784
- NCI-H1651 — higher, 1.03
- NCI-H1944 — lower, 0.946
- NCI-H2009 — lower, 0.925
- SW 1573 — lower, 0.882
- ABC-1 — lower, 0.885
- NCI-H358 — lower, 0.618
- NCI-H727 — lower, 0.5
- SK-LU-1 — higher, 1.07

Same assay, conditions: 0.06325 µM

Point of comparison: NCI-H1437, relative viability 0.817. Against it:
- NCI-H1993 — lower, 0.727
- HOP-62 — higher, 0.897
- NCI-H1355 — higher, 0.85
- NCI-H2405 — higher, 0.923
- NCI-H661 — higher, 0.954
- CAL-12T — lower, 0.794
- NCI-H1703 — lower, 0.816
- H3255 — higher, 0.914
- NCI-H2347 — lower, 0.667
- NCI-H1975 — higher, 0.958
- NCI-H1563 — higher, 0.868
- NCI-H1650 — lower, 0.796
- NCI-H1915 — higher, 0.84
- NCI-H2087 — lower, 0.672
- HCC-366 — higher, 0.992
- NCI-H1793 — lower, 0.682
- RERF-LC-KJ — higher, 0.936
- EKVX — lower, 0.775
- NCI-H1651 — higher, 0.913
- NCI-H1944 — lower, 0.791
- NCI-H2009 — lower, 0.639
- SW 1573 — lower, 0.814
- ABC-1 — lower, 0.757
- NCI-H358 — lower, 0.456
- NCI-H727 — lower, 0.418
- SK-LU-1 — higher, 0.904

Same assay, conditions: 0.2 µM

Point of comparison: NCI-H1437, relative viability 0.703. Against it:
- NCI-H1993 — higher, 0.728
- HOP-62 — higher, 0.886
- NCI-H1355 — higher, 0.749
- NCI-H2405 — higher, 0.861
- NCI-H661 — higher, 0.979
- CAL-12T — higher, 0.781
- NCI-H1703 — higher, 0.9
- H3255 — higher, 0.944
- NCI-H2347 — lower, 0.492
- NCI-H1975 — higher, 0.939
- NCI-H1563 — higher, 0.981
- NCI-H1650 — higher, 0.837
- NCI-H1915 — lower, 0.666
- NCI-H2087 — lower, 0.48
- HCC-366 — higher, 0.842
- NCI-H1793 — lower, 0.561
- RERF-LC-KJ — higher, 0.968
- EKVX — lower, 0.645
- NCI-H1651 — higher, 0.93
- NCI-H1944 — lower, 0.673
- NCI-H2009 — lower, 0.574
- SW 1573 — higher, 0.754
- ABC-1 — higher, 0.875
- NCI-H358 — lower, 0.373
- NCI-H727 — lower, 0.352
- SK-LU-1 — higher, 0.8

Same assay, conditions: 0.6325 µM

Point of comparison: NCI-H1563, relative viability 0.91. Against it:
- NCI-H1993 — lower, 0.762
- HOP-62 — lower, 0.549
- NCI-H1355 — lower, 0.743
- NCI-H2405 — lower, 0.686
- NCI-H1437 — lower, 0.53
- NCI-H661 — higher, 1
- CAL-12T — lower, 0.737
- NCI-H1703 — lower, 0.909
- H3255 — higher, 0.93
- NCI-H2347 — lower, 0.386
- NCI-H1975 — lower, 0.663
- NCI-H1650 — lower, 0.795
- NCI-H1915 — lower, 0.581
- NCI-H2087 — lower, 0.318
- HCC-366 — lower, 0.851
- NCI-H1793 — lower, 0.457
- RERF-LC-KJ — lower, 0.886
- EKVX — lower, 0.565
- NCI-H1651 — higher, 0.963
- NCI-H1944 — lower, 0.643
- NCI-H2009 — lower, 0.385
- SW 1573 — lower, 0.833
- ABC-1 — lower, 0.841
- NCI-H358 — lower, 0.31
- NCI-H727 — lower, 0.385
- SK-LU-1 — lower, 0.484

These cell lines were tested with CC1(C)CCC(CN2CCN(c3ccc(C(=O)NS(=O)(=O)c4ccc(NCC5CCOCC5)c([N+](=O)[O-])c4)c(Oc4cnc5[nH]ccc5c4)c3)CC2)=C(c2ccc(Cl)cc2)C1 [Venetoclax] in the same assay as above. Conditions: 0.01 µM.
Method in brief: as §1

Point of comparison: CAL-12T, relative viability 0.944. Against it:
- NCI-H1993 — lower, 0.892
- HOP-62 — higher, 1
- NCI-H1355 — higher, 0.957
- NCI-H2405 — higher, 1.03
- NCI-H1437 — higher, 0.971
- NCI-H661 — higher, 0.964
- NCI-H1703 — lower, 0.869
- H3255 — higher, 1
- NCI-H2347 — higher, 1.06
- NCI-H1975 — higher, 0.99
- NCI-H1563 — higher, 0.999
- NCI-H1650 — lower, 0.903
- NCI-H1915 — higher, 0.954
- NCI-H2087 — lower, 0.921
- HCC-366 — higher, 0.995
- NCI-H1793 — lower, 0.933
- RERF-LC-KJ — higher, 0.987
- EKVX — higher, 0.998
- NCI-H1651 — higher, 1.05
- NCI-H1944 — higher, 1.14
- NCI-H2009 — higher, 1.05
- SW 1573 — higher, 0.974
- ABC-1 — higher, 1.11
- NCI-H358 — higher, 1.04
- NCI-H727 — higher, 1.17
- SK-LU-1 — higher, 0.953

Same assay, conditions: 0.03162 µM

Point of comparison: RERF-LC-KJ, relative viability 1.06. Against it:
- NCI-H1993 — lower, 0.999
- HOP-62 — lower, 1.05
- NCI-H1355 — lower, 0.983
- NCI-H2405 — higher, 1.14
- NCI-H1437 — lower, 1.04
- NCI-H661 — higher, 1.07
- CAL-12T — lower, 1.05
- NCI-H1703 — lower, 0.953
- H3255 — lower, 1.04
- NCI-H2347 — higher, 1.12
- NCI-H1975 — lower, 0.935
- NCI-H1563 — lower, 0.963
- NCI-H1650 — lower, 1.02
- NCI-H1915 — lower, 1.03
- NCI-H2087 — lower, 1.03
- HCC-366 — lower, 1.03
- NCI-H1793 — lower, 0.993
- EKVX — lower, 1
- NCI-H1651 — lower, 1.02
- NCI-H1944 — lower, 0.937
- NCI-H2009 — lower, 1.01
- SW 1573 — lower, 0.985
- ABC-1 — lower, 0.981
- NCI-H358 — lower, 0.916
- NCI-H727 — lower, 0.993
- SK-LU-1 — higher, 1.16

Same assay, conditions: 0.1 µM

Point of comparison: NCI-H1651, relative viability 0.971. Against it:
- NCI-H1993 — lower, 0.904
- HOP-62 — higher, 0.989
- NCI-H1355 — higher, 1.01
- NCI-H2405 — higher, 0.978
- NCI-H1437 — higher, 0.989
- NCI-H661 — lower, 0.949
- CAL-12T — lower, 0.923
- NCI-H1703 — lower, 0.917
- H3255 — higher, 0.98
- NCI-H2347 — lower, 0.965
- NCI-H1975 — lower, 0.889
- NCI-H1563 — the same, 0.971
- NCI-H1650 — lower, 0.815
- NCI-H1915 — lower, 0.937
- NCI-H2087 — lower, 0.821
- HCC-366 — higher, 0.986
- NCI-H1793 — lower, 0.787
- RERF-LC-KJ — higher, 0.972
- EKVX — lower, 0.913
- NCI-H1944 — lower, 0.951
- NCI-H2009 — higher, 0.991
- SW 1573 — lower, 0.911
- ABC-1 — higher, 0.974
- NCI-H358 — lower, 0.898
- NCI-H727 — lower, 0.848
- SK-LU-1 — higher, 0.991

Same assay, conditions: 0.3162 µM

Point of comparison: NCI-H2405, relative viability 0.996. Against it:
- NCI-H1993 — lower, 0.91
- HOP-62 — lower, 0.973
- NCI-H1355 — higher, 1.03
- NCI-H1437 — lower, 0.957
- NCI-H661 — lower, 0.995
- CAL-12T — lower, 0.956
- NCI-H1703 — lower, 0.99
- H3255 — higher, 1.01
- NCI-H2347 — lower, 0.978
- NCI-H1975 — lower, 0.939
- NCI-H1563 — higher, 1.04
- NCI-H1650 — higher, 1.05
- NCI-H1915 — lower, 0.991
- NCI-H2087 — higher, 1.01
- HCC-366 — higher, 1.02
- NCI-H1793 — lower, 0.887
- RERF-LC-KJ — lower, 0.909
- EKVX — lower, 0.975
- NCI-H1651 — lower, 0.926
- NCI-H1944 — higher, 1.05
- NCI-H2009 — lower, 0.974
- SW 1573 — lower, 0.969
- ABC-1 — lower, 0.938
- NCI-H358 — lower, 0.975
- NCI-H727 — lower, 0.953
- SK-LU-1 — higher, 1.01

Same assay, conditions: 1 µM

Point of comparison: SW 1573, relative viability 0.877. Against it:
- NCI-H1993 — lower, 0.838
- HOP-62 — higher, 0.927
- NCI-H1355 — higher, 0.904
- NCI-H2405 — higher, 0.914
- NCI-H1437 — higher, 0.949
- NCI-H661 — higher, 0.966
- CAL-12T — higher, 0.886
- NCI-H1703 — lower, 0.788
- H3255 — higher, 0.933
- NCI-H2347 — higher, 0.977
- NCI-H1975 — higher, 0.884
- NCI-H1563 — higher, 1.07
- NCI-H1650 — lower, 0.768
- NCI-H1915 — higher, 0.92
- NCI-H2087 — higher, 1.02
- HCC-366 — higher, 0.939
- NCI-H1793 — lower, 0.784
- RERF-LC-KJ — higher, 0.926
- EKVX — higher, 0.937
- NCI-H1651 — higher, 0.904
- NCI-H1944 — higher, 0.891
- NCI-H2009 — higher, 0.882
- ABC-1 — higher, 0.897
- NCI-H358 — lower, 0.863
- NCI-H727 — lower, 0.827
- SK-LU-1 — higher, 1.02
